Reference: US9884806B2, “Cyclic vinylogous amides as bromodomain inhibitors” (ICAHN SCHOOL OF MEDICINE AT MOUNT SINAI, priority 2013, dated 2018)
Read-outs that look alike come from different tables or passages of the source.

How the values were obtained:
BRD4_2 = molecular target: T1, BRD4_2 (Homo sapiens, UniProt O60885); assay: Fluorescence anisotropy binding assay (competition with FITC-labeled MS417 probe), BRD4_2; conditions: FITC-MS417 probe 80 nM, PBS pH 7.4, 1 hour, 25° C.
T1 construct: contains two tandem bromodomains (BrD1 and BrD2)

[1] = tested on: NO release in RAW264.7 cells; assay: LPS-stimulated nitric oxide (NO) release in murine macrophage RAW264.7 cells (Griess reaction); assay type: cell-based; conditions: Mus musculus, read-out: IC50 in inhibition of LPS-induced NO release
Procedure: LPS-Stimulated Nitric Oxide (NO) Release in Murine Macrophage RAW264.7 Cells
RAW264.7 cells was cultivated in DMEM supplemented with 10% FBS at 37° C. in a humidified atmosphere of 5% CO2. Cells in 96-well plates (0.1 ml, 3×10^5 cells/ml) were treated with the test compounds. After 30 min, all supernatants were removed and cells were treated with LPS (1 μg/ml) and the test compounds. After 24 hours, the level of nitrite was measured using Griess reaction G2930 (Promega Corp., Madison, Wis.) [see Bredt and Snyder, Ann Rev Biochem 63, 175-195 (1994)]. The test compounds dissolved in DMSO were diluted with culture medium to concentrations from 0.28 to 50,000 nM. The final concentration of DMSO was adjusted to 0.05% (v/v). The nitrite production was measured by spectrophotometry at 520 nm using EnVison 2104 Multilabel Reader (PerkinElmer, Inc., Waltham, Mass.). Each experiment was performed at least in triplicate and plotted using Prism.

[2] = molecular target: T2, first bromodomain (BrD1) of human BRD4 (Homo sapiens, UniProt O60885); assay: Fluorescence anisotropy binding assay (competition with FITC-labeled MS417 probe); conditions: FITC-MS417 probe 80 nM, PBS pH 7.4, 1 hour, 25° C., read-out: BRD4_1 IC50
T2 construct: the first bromodomain (BrD1) of human BRD4; poly-His (cleaved yes); made in house
Outline: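 BRD4 BrD1 (His tag removed by thrombin) at 0.25 to 1 μM competed against 80 nM FITC-labeled MS417 in PBS pH 7.4. Anisotropy read after 1 hour at 25° C. Ki derived from fitted IC50 by Nikolovska-Coleska-corrected Cheng-Prusoff equation, one-site competitive model.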

[3] = tested on: mRNA transcript levels of cytokines IL-6, IL-1β and TNFα in RAW264.7 cells; assay: LPS-induced transcriptional activation of cytokines in murine macrophage cells (quantitative PCR); assay type: cell-based; conditions: Mus musculus
Procedure: LPS-Induced Transcriptional Activation of Cytokines in Murine Macrophage Cells RAW264.7 cells were cultivated with or without a treatment of the compounds as described above. Total RNA was isolated the cells using TRIzol reagent (Gibco, Grand Island, N.Y.) for homogenization. The concentration and integrity of RNA were determined by measuring absorbance at a 260 nm/280 nm ratio. Quantitative PCR was performed to determine the mRNA transcript levels of cytokines IL-6, IL-1β and TNFα with specific primers for these target genes. Each experiment was performed at least in triplicate, and plotted using Prim, and an IC50 value was calculated.

Structure (SMILES)	IC50 (BRD4_2) [nM]	IC50 ([1]; RAW264.7, 24 h) [nM]	IC50 [2] [nM]	IC50 ([3]; RAW264.7, read-out: IC50 in inhibition of transcriptional activation of the cytokines IL-6, IL-1β and TNFα) [nM]	IC50 ([1]; RAW264.7 cells, LPS 1 μg/ml, 24 hours, nitrite by Griess reaction) [nM]	IC50 ([3]; RAW264.7 cells, LPS, quantitative PCR of mRNA transcript levels, read-out: IC50 in inhibition of transcriptional activation of the cytokines IL-6, IL-1β and TNFα) [nM]	melting point [°C]
CC1=C(Nc2ccc(C(=O)Nc3cccc4ccccc34)cc2Cl)CCC1=O [Example 04-15, 3-chloro-4-((2-methyl-3-oxocyclopent-1-en-1-yl)amino)-N-(naphthalen-1-yl)-benzamide]	1000 to 10000	100 to 5000	< 1000	100 to 5000			
COc1ccccc1NC(=O)c1ccc(NC2=C(C)C(=O)CC2)c(Cl)c1 [Example 04-17, 3-chloro-N-(2-methoxyphenyl)-4-((2-methyl-3-oxocyclopent-1-en-1-yl)amino)benzamide]	1000 to 10000		< 1000		100 to 5000	100 to 5000	
CC1=C(Nc2cc(NS(=O)(=O)Cc3ccccc3)ccc2Cl)CCC1=O [Example 05-54, N-(4-chloro-3-((2-methyl-3-oxocyclopent-1-en-1-yl)amino)phenyl)-1-phenylmethanesulfonamide]	< 1000		< 1000				196 to 198
CC1=C(Nc2cc(NS(=O)(=O)C3CCCCC3)ccc2Cl)CCC1=O [Example 05-55, N-(4-chloro-3-((2-methyl-3-oxocyclopent-1-en-1-yl)amino)phenyl)-cyclohexanesulfonamide]	1000 to 10000		< 1000				158 to 160
CC1=C(Nc2cc(NS(=O)(=O)c3ccccc3F)ccc2Cl)CCC1=O [Example 05-58, N-(4-chloro-3-((2-methyl-3-oxocyclopent-1-en-1-yl)amino)phenyl)-2-fluorobenzenesulfonamide]	< 1000		< 1000				215 to 217
CC1=C(Nc2cc(NS(=O)(=O)c3ccccc3C#N)ccc2Cl)CCC1=O [Example 05-59, N-(4-chloro-3-((2-methyl-3-oxocyclopent-1-en-1-yl)amino)phenyl)-2-cyanobenzenesulfonamide]	< 1000		< 1000				235 to 238
COc1ccccc1S(=O)(=O)Nc1ccc(Cl)c(NC2=C(C)C(=O)CC2)c1 [Example 05-60, N-(4-chloro-3-((2-methyl-3-oxocyclopent-1-en-1-yl)amino)phenyl)-2-methoxybenzenesulfonamide]	< 1000		< 1000				198 to 200
CC1=C(Nc2cc(NS(=O)(=O)N3CCCCC3)ccc2Cl)CCC1=O [Example 05-61, N-(4-chloro-3-((2-methyl-3-oxocyclopent-1-en-1-yl)amino)phenyl)-piperidine-1-sulfonamide]	< 1000		< 1000				78 to 80
CC1=C(Nc2cc(NS(=O)(=O)N3CCOCC3)ccc2Cl)CCC1=O [Example 05-62, N-(4-chloro-3-((2-methyl-3-oxocyclopent-1-en-1-yl)amino)phenyl)-morpholine-4-sulfonamide]	1000 to 10000		< 1000				60 to 67
CC1=C(Nc2ccc(NS(=O)(=O)c3ccccc3C)cc2Cl)CCC1=O [Example 05-63, N-(3-chloro-4-((2-methyl-3-oxocyclopent-1-en-1-yl)amino)phenyl)-2-methylbenzenesulfonamide]	1000 to 10000		< 1000				215 to 218
CC1=C(Nc2ccc(NS(=O)(=O)C3CCCCC3)cc2Cl)CCC1=O [Example 05-64, N-(3-chloro-4-((2-methyl-3-oxocyclopent-1-en-1-yl)amino)phenyl)-cyclohexanesulfonamide]	1000 to 10000		< 1000				210 to 213
CC1=C(Nc2cccc(NS(=O)(=O)c3ccccc3C)c2Cl)CCC1=O [Example 05-65, N-(2-chloro-3-((2-methyl-3-oxocyclopent-1-en-1-yl)amino)phenyl)-2-methylbenzenesulfonamide]	1000 to 10000		< 1000				75 to 77
CC1=C(Nc2cc(NS(=O)(=O)C3CCCCC3)ccc2Cl)CCCC1=O [Example 05-67, N-(4-chloro-3-((2-methyl-3-oxocyclohex-1-en-1-yl)amino)phenyl)-cyclohexanesulfonamide]	< 1000		< 1000				215 to 217
CC1=C(Nc2ccc(NS(=O)(=O)C3CCCCC3)cc2Cl)CCCC1=O [Example 05-69, N-(3-chloro-4-((2-methyl-3-oxocyclohex-1-en-1-yl)amino)phenyl)-cyclohexanesulfonamide]	1000 to 10000		< 1000				230 to 232
CC1=C(Nc2cc(NCc3ccccc3C)ccc2Cl)CCCC1=O [Example 05-72, 3-((2-chloro-5-((2-methylbenzyl)amino)phenyl)amino)-2-methylcyclohex-2-enone]	< 1000		< 1000				158 to 160
CC1=C(Nc2cc(NCCc3ccccc3C)ccc2Cl)CCCC1=O [Example 05-73, 3-((2-chloro-5-((2-methylphenethyl)amino)phenyl)amino)-2-methylcyclohex-2-enone]	1000 to 10000		1000 to 10000				85 to 87
CC1=C(Nc2cc(NCc3ccccc3F)ccc2Cl)CCCC1=O [Example 05-74, 3-((2-chloro-5-((2-fluorobenzyl)amino)phenyl)amino)-2-methylcyclohex-2-enone]	< 1000		< 1000				103 to 105
CC1=C(Nc2cc(NCc3cccc(F)c3C)ccc2Cl)CCCC1=O [Example 05-75, 3-((2-chloro-5-((3-fluoro-2-methylbenzyl)amino)phenyl)amino)-2-methylcyclohex-2-enone]	1000 to 10000		< 1000				160 to 162
CC1=C(Nc2ccc(NCc3ccccc3C)cc2Cl)CCCC1=O [Example 05-76, 3-((2-chloro-4-((2-methylbenzyl)amino)phenyl)amino)-2-methylcyclohex-2-enone]	> 10000		1000 to 10000				220 to 221
CC1=C(Nc2ccc(NCCc3ccccc3C)cc2Cl)CCCC1=O [Example 05-77, 3-((2-chloro-4-((2-methylphenethyl)amino)phenyl)amino)-2-methyl-cyclohex-2-enone]	1000 to 10000		1000 to 10000				160 to 162
CC1=C(Nc2cccc(NCc3ccccc3C)c2Cl)CCCC1=O [Example 05-78, 3-((2-chloro-3-((2-methylbenzyl)amino)phenyl)amino)-2-methylcyclohex-2-enone]	1000 to 10000		< 1000				132 to 135
CC1=C(Nc2cccc(NCCc3ccccc3C)c2Cl)CCCC1=O [Example 05-79, 3-((2-chloro-3-((2-methylphenethyl)amino)phenyl)amino)-2-methylcyclohex-2-enone]	> 10000		1000 to 10000				157 to 160
CC1=C(Nc2cc(Nc3ccccc3C)ccc2Cl)CCCC1=O [Example 05-81, 3-((2-chloro-5-(o-tolylamino)phenyl)amino)-2-methylcyclohex-2-enone]	1000 to 10000		< 1000				165 to 168
CC1=C(Nc2ccc(Nc3ccccc3C)cc2Cl)CCCC1=O [Example 05-82, 3-((2-chloro-4-(o-tolylamino)phenyl)amino)-2-methylcyclohex-2-enone]	> 10000		< 1000				68 to 70
CC1=C(Nc2cc(NC(=O)/C=C\C(=O)O)ccc2Cl)CCCC1=O [Example 05-83, (Z)-4-((4-chloro-3-((2-methyl-3-oxocyclohex-1-en-1-yl)amino)phenyl)-amino)-4-oxobut-2-enoic acid]	> 10000		1000 to 10000				182 to 185
CC1=C(Nc2ccc(NC(=O)/C=C\C(=O)O)cc2Cl)CCCC1=O [Example 05-84, (Z)-4-((3-chloro-4-((2-methyl-3-oxocyclohex-1-en-1-yl)amino)phenyl)-amino)-4-oxobut-2-enoic acid]	> 10000		1000 to 10000				200 to 202
